Experimental findings from patent US10046001B2, “Compositions and methods for reducing intraocular pressure” (UNIVERSITY OF MIAMI, priority 2013, dated 2018) are described below.

This data set deals with normotensive cynomolgus monkeys. Put plainly: IOP and slit lamp examination in normotensive cynomolgus monkeys after topical lipid. It is filed as in vivo. On the procedure:
Lipids were topically administered in 1 μl volume around ˜1 pm in the afternoon. The right eye was treated with vehicle alone, and the left eye was treated with lipid. The cynomolgus monkeys (n=4) were treated with […] lipid (except C17S1P which was 50 nM) for 5 days. Monkeys were subjected to slit lamp examination and IOP measurement prior to and after treatment. The IOP measured 3-6 hours post-treatment on the fifth day of treatment is depicted as solid bars. The hollow bars are control (vehicle only (5% DMSO)).
Experimental design: The IOP-reducing activity of six lipids was tested in the eyes of cynomolgus monkeys (n=4 animals for each lipid). Baseline slit lamp biomicroscopic examination (SLE) and IOP for each group of animals was measured prior to topical application of lipids. The SLE and IOP were then measured at 3-6 hours posttreatment. One eye of each monkey received topical application with the lipid suspended in vehicle (1% dimethylsulfoxide (DMSO)), and the contralateral eye was treated with vehicle only. All topical applications contained 10 picomole of lipid (except C17S1P, which was 50 nM). […] The IOP was measured using a minified Goldmann applanation tonometer.

For the compound `CCCCCCCCCCCCCC[C@@H](O)[C@@H](N)COP(=O)(O)O` [C17 Sphinganine-1-phosphate], where the note is “topical 10 picomole (C17S1P 50 nM), 5 days, IOP 3-6 hours post-treatment”, the IOP reduction result was “reduced IOP significantly”. For the same compound, the “adverse side effects or toxicity” value (topical, slit lamp examination) was “without additional adverse side effects or toxicity”.
